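Exposure lasted 48 hours, with cells grown in 96-well plates and compounds tested at five concentrations. GI50 = concentration required for 50% inhibition of growth.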 Calls of active or inactive are those of the source. No stated cut-off is given here; in the data, active = GI50 up to about 1.1 µM and inactive = higher.
Tests used:
Assay in all cases: inhibition of tumour cell growth, NCI panel, 48 h
[1] = tested on: A498
[2] = tested on: A549
[3] = tested on: CCRF-CEM
[4] = tested on: EKVX
[5] = tested on: HT-29
[6] = tested on: IGROV-1
[7] = tested on: KM12
[8] = tested on: MOLT-4
[9] = tested on: OVCAR-3
[10] = tested on: OVCAR-4
[11] = tested on: OVCAR-5
[12] = tested on: RPMI-8226
[13] = tested on: SF-295
[14] = tested on: SK-OV-3
[15] = tested on: SNB-75
[16] = tested on: UACC-62
[17] = tested on: HL-60
[18] = tested on: NCI-H226
[19] = tested on: SF-539
[20] = tested on: SK-MEL-2

Measured: GI50

COc1ccc(/C=C/C(=O)C(C)(C)C)cc1OC
inactive: [1] > 100 µM | [2] > 100 µM | [3] 36.2 µM | [4] > 100 µM | [5] 62.5 µM | [6] > 100 µM | [7] 43.9 µM | [8] 59.6 µM | [9] 64.7 µM | [10] 79.6 µM | [11] > 100 µM | [12] 47.4 µM | [13] > 100 µM | [14] 76.2 µM | [15] 34.4 µM | [16] 52.6 µM

Cc1c2ccccc2c(CO)c2cc(F)c3ccccc3c12
inactive: [1] 38.2 µM | [2] 26.6 µM | [3] 22.3 µM | [4] 29.9 µM | [17] 17.6 µM | [5] 19.1 µM | [6] 20.7 µM | [7] 18.8 µM | [8] 14.8 µM | [18] 42 µM | [9] 26.9 µM | [10] 23.4 µM | [11] 28 µM | [13] 21.9 µM | [19] 30.6 µM | [20] 18.5 µM | [14] 29 µM | [15] 29.9 µM | [16] 27.2 µM

Cc1ccc(/N=N/C(C2=NC(=O)CS2)c2nc3ccccc3[nH]2)cc1 (stereo not drawn)
inactive: [1] > 100 µM | [2] > 100 µM | [3] 29.9 µM | [4] > 100 µM | [17] > 100 µM | [5] > 100 µM | [6] > 100 µM | [7] > 100 µM | [8] 20.7 µM | [18] 6.1 µM | [9] > 100 µM | [10] > 100 µM | [11] > 100 µM | [12] > 100 µM | [13] > 100 µM | [19] 54.6 µM | [14] > 100 µM | [15] 59.2 µM | [16] > 100 µM

Cc1cn(C2CC(n3cc(Cn4ccc(=O)[nH]c4=O)nn3)C(CO)O2)c(=O)[nH]c1=O (stereo not drawn)
inactive: [1] > 100 µM | [2] > 100 µM | [3] > 100 µM | [17] 95.1 µM | [7] > 100 µM | [8] > 100 µM | [18] > 100 µM | [9] > 100 µM | [10] > 100 µM | [11] > 100 µM | [12] > 100 µM | [13] > 100 µM | [19] > 100 µM | [20] > 100 µM | [14] 49 µM | [15] > 100 µM | [16] > 100 µM

Cc1ccc2c(O)cc(-c3ccc(F)cc3)nc2n1
inactive: [1] 25.1 µM | [2] 61.7 µM | [3] 32.1 µM | [4] 28.7 µM | [17] 14.1 µM | [5] 30.1 µM | [6] 25.7 µM | [7] 22.4 µM | [8] 26.8 µM | [18] 37.1 µM | [10] 44.5 µM | [11] 70.1 µM | [12] 24.9 µM | [19] 42.5 µM | [20] 45.7 µM | [14] 40.2 µM | [15] 14.1 µM | [16] 24.1 µM

NC(=O)c1ncn2c1CNC(=O)C2
inactive: [1] > 100 µM | [2] > 100 µM | [3] > 100 µM | [4] > 100 µM | [17] > 100 µM | [5] > 100 µM | [6] > 100 µM | [7] > 100 µM | [8] > 100 µM | [18] > 100 µM | [9] > 100 µM | [10] > 100 µM | [11] > 100 µM | [13] > 100 µM | [19] > 100 µM | [20] > 100 µM | [14] > 100 µM | [15] > 100 µM | [16] > 100 µM

Nc1nc(Cl)cc(NCCCNc2cc(Cl)nc(N)n2)n1
inactive: [1] > 100 µM | [2] > 100 µM | [3] > 100 µM | [4] > 100 µM | [17] > 100 µM | [5] > 100 µM | [6] > 100 µM | [7] > 100 µM | [8] > 100 µM | [18] > 100 µM | [9] > 100 µM | [10] > 100 µM | [11] > 100 µM | [12] > 100 µM | [13] > 100 µM | [19] > 100 µM | [20] > 100 µM | [14] > 100 µM | [15] > 100 µM | [16] > 100 µM

CCCCCCNC(=O)C(C)C1CCC2(C)C=CC(=O)C(C)=C2C1O (stereo not drawn)
inactive: [1] > 100 µM | [2] > 100 µM | [3] > 100 µM | [4] > 100 µM | [17] > 64.4 µM | [5] > 100 µM | [6] > 100 µM | [7] > 88.1 µM | [8] > 75.2 µM | [18] > 100 µM | [9] > 100 µM | [10] 96.8 µM | [11] 99.1 µM | [12] > 70.3 µM | [13] > 100 µM | [19] > 100 µM | [20] > 100 µM | [14] > 100 µM | [15] > 100 µM | [16] > 100 µM
